{"source": "patent US20130039956A1", "about": "“USE OF NITROCARBOXYLIC ACIDS FOR THE TREATMENT, DIAGNOSIS AND PROPHYLAXIS OF AGGRESSIVE HEALING PATTERNS” (priority 2010, published 2013)", "key": {"[1]": {"tested_on": "Tracheas of adult Wistar rats", "assay": "Tissue damage due to barotrauma ex vivo (tracheal rings)", "type": "cell-based", "conditions": "inhibitor 10 micromol, 6 hours before traumatization", "description": "In order to determine the effects of nitrated fatty acids on mechanical trauma to tracheal cells, an ex vivo model was established. Tracheas of adult Wistar rats sacrificed with thiopental given intraabdominally were carefully resected (harvested). Whole (intact) tracheas were cultured in DMEM 10 (Sigma) supplemented with antibiotic/antimycotic drugs for 48 hours at 37° C. Tracheas were cut into five pieces of equal size. One piece was immediately analyzed, two were bathed in 0.9% saline, one was bathed in a solution containing native fatty acid in SDS (1%), and one was bathed in a solution containing nitro fatty acid, respectively, for 15 minutes each. The inner diameters of the tracheal rings were measured. A non-compliant balloon catheter for use in vascular interventions was chosen, so that the nominal balloon diameter was 15-20% larger than that of the trachea. One tracheal ring pretreated with 0.9% saline was left untreated; the other prepared tracheal rings were mounted on the balloon catheter, which was inflated to a pressure of 4 atm thereafter. Balloons were kept inflated for 4 hours, while being positioned in the culture medium. Thereafter, the tracheal rings were further cultivated in separate vials for 24 hours. In a separate set of investigations, sense/antisense ODNs for HO-1 (Invitrogen) directed against the translation initiation codon in the HO-1 cDNA was used to inhibit hemoxydase-1 synthesis. The cells were transfected using the Superfect transfection reagent (Qiagen) before traumatization. In another set of experiments, the HO inhibitor SnPP IX (Porphyrin Products, London, UK) was added to the culture medium 6 hours before traumatization at a dose of 10 micromol.\nFor analysis, the rings were cut into small strips using a no touch technique. Viability was tested using a MTT assay and apoptosis using a TUNEL assay. Anti-HO-1 antibodies (StressGen, Tebu, Le-Perray-en-Yvelines, France) were measured by Western blot and immunohistochemistry."}, "human dermal fibroblasts": {"tested_on": "human dermal fibroblasts", "assay": "Extra cellular matrix production (collagen-1) in response to TGF-β2 in dermal fibroblasts", "type": "cell-based", "description": "In order to determine whether PPRA gamma stimulation due to nitrated fatty acids plays a role in the inventive inhibition of an aggressive healing pattern to an irritating stimulus, human dermal fibroblasts were investigated. A dominant-negative PPAR gamma mutant (L466A) cell clone was generated by polymerase chain reaction-based site-directed mutagenesis. Presence of PPAR gamma or absence was investigated using a PPAR gamma antibody reaction which was determined using an enhanced chemiluminescence detection system. Furthermore, one cell series was incubated with a selective irreversible PPAR gamma ligand (GW9662, 1 μmol), which effectively blocks PPAR gamma receptors.\nSequential cultivation of human dermal fibroblasts was performed in EMEM containing 5 mM glucose supplemented with 10% FCS under standard cultivation conditions. Cells were allowed to grow to confluence in a 96-well plate. Wild-type fibroblasts and PPAR gamma deficient fibroblasts were investigated by a set-up of 2×10 sample sets comprising: (1) blank control; (2) stimulation control; (3) preincubation with the PPAR gamma antagonist GW9662 (Cayman Chemical); (4) preincubation with the PPAR agonist troglitazone (25 μmol). In 2×4 sample sets, native fatty acids were added to the medium to achieve a final concentration of 10 and 50 μmol, respectively; in another 2×4 sets the nitrated fatty acids were added to the medium in the same concentration, while 2×2 sets served as controls. In 10 of the sets, TGF-β2 was added to the culture medium at a concentration of 25 ng/ml. Cultivation was continued for 48 hours and then processed in order to analyze collagen-1 as measured by enhanced chemiluminescence detection of immuncomplexes."}, "[2]": {"tested_on": "human umbellical endothelial cells (HUVEC)", "assay": "Adhesion, propagation and growth of endothelial cells on coated polystyrene films", "type": "cell-based", "conditions": "days 3, 7, 14, compared with native FA", "description": "Polystyrene scaffolds were prepared and pretreated in the same manner as performed in example 1 by using the same nitrocarboxylic acids as listed in table 1. The film samples were placed in a culture dish containing a gel matrix, in which human umbellical endothelial cells (HUVEC) had been allowed to grow to confluence. The culture medium consisted of 5% FCS, which was replaced every 5 days. Cultivation was performed according to standard conditions. Films were evaluated at days 3, 7, and 14 after careful extraction from the culture dishes, rinsing with saline solution, and staining with methylene blue. Using a reflected light microscope, the films were immediately examined to evaluate the following: Propagation of cells to the film center, cell confluidity, multilayer formation, and cell shape."}, "[3]": {"tested_on": "Human peripheral blood mononuclear cells (PBMCs)", "assay": "Adhesion of serum proteins and monocyte activation induced by coated silicone", "type": "cell-based", "conditions": "dip-coated silicone, PBMCs 3 days; compared with native FA", "description": "In order to determine the effect of coating implant materials with nitro fatty acids to reduce adsorption of adhesion molecules and monocyte activation, sterile silicone sheets were out in small pieces and coated with respective nirocarboxylic acid and the corresponding native fatty acids by dip coating. Uncoated silicone pieces served as controls. For each fatty acid two sets of silicone pieces were bathed in freshly drawn human serum for 1 hour at 37° C., and another two sets were bathed in saline solutions. One set of both coated and uncoated pieces was analyzed immediately for adhesion proteins and the other set was placed in 96-well plates after rinsing the silicone pieces. Human peripheral blood mononuclear cells (PBMCs), isolated from three healthy subjects, were added to each well. Wells were incubated for 3 days under standard conditions. Culture supernatants were assayed for IL-1beta, IL-6, IL-8, and chemoattractant protein 1 (MCP-1) levels at the start and end of experiments.\nBefore analyzing the silicone pieces for protein adsorption, they were bathed in saline for 5 minutes. Thereafter, one side was rinsed with saline as performed for both sides in the set used for culturing. There was marked adsorption of fibrinogen and […] C5b-9 on the uncoated silicone. […] No protein was found on the surface of the nitro fatty acid-coated sample that was rinsed, thus, indicating the weak adherence of serum proteins."}, "[4]": {"tested_on": "Murine macrophage-like cells RAW 264.7 and murine L929 fibroblasts", "assay": "Monocyte/fibroblast co-culture on coated surgical suture material", "type": "cell-based", "conditions": "dip-coated suture material, 24 and 48 hours; compared with native FA", "from_the_text": "In order to determine immunoreactions to foreign material and its consequence on fibrogenesis, co-cultures of fibroblasts and monocytes were used. Commercially available suture materials (propylene, polyamide, and silk) were dip-coated with corresponding native and nitrated fatty acids. Untreated suture material served as control. Treated and untreated suture materials were out in small pieces and placed in a 96-well plate.\nMurine macrophage-like cells RAW 264.7 and murine L929 fibroblasts were cultured to a population density of 5×10(5) each. Cell suspensions were merged achieving a cellularity of approximately 2.5×10(5) cell/ml of each cell population which were added to the wells. The suture material samples were fully covered by the suspension. Wells were continuously and gently shaken throughout the incubation period.\nSupernatants were collected for assays after 24 and 48 hours and analyzed for profibrotic cytokines IL-13, IL-4, and IL-6, TGF-β1, collagen I."}, "Cardiomyocytes": {"tested_on": "Cardiomyocytes", "assay": "TGF-β1-inducible formation of extracellular matrix in cardiomyocytes under shear stress", "type": "cell-based", "conditions": "10-100 μmol, shear stress up to 100 dyn/cm^2; compared with native FA", "description": "Characterizing features of the fibrous remodelling in the heart are accentuated expression and deposition of extracellular matrix proteins (ECM). This has been attributed to increased mechanical forces via autocrine release of transforming growth factor-beta (TGF-beta). […] An established cell culture model was used to investigate the effect of shear stress on cardiomyocytes. Cardiomyocytes were cultured and transferred to a matrigel substrate. Plates with confluenced cells were placed into a shear force injury device (SFID). The SFID design is based on a cone-and-plate construction which is a well-defined rheological model in which a homogenously distributed laminar flow over the surface of the cells is generated by a rotating cone. The conical surface is positioned above a stationary flat plate and the fluid medium between these two surfaces is set in motion by rotating the cone to create a uniform level of fluid shear stress throughout the entire surface of the cells cultured on the coverslips.\nA peak shear stress of 100 dyn/cm^2 could be applied without significant cell detachment enabling a maximum injury severity of 46%. Cells were exposed to FCS 1% without or with nitro-fatty acid, and the corresponding native fatty acid in a dosage range between 10 μmol and 100 μmol, 10 seconds before shear force application. Shear force peaks up to 100 dyn/cm^2 with a duration of 30 msec each with a repetition frequency of 60/minute were applied for 5, 10, 30 and 60 minutes. Thereafter the cell plates were washed and placed in FCS 1% for 24 hrs. The supernatant of the shear force investigation as well as that of the following culture phase was analysed. It could be shown that TGF-beta and ECM proteins (collagen I, fibronectin, laminin, elastin) increased after treatment in the control groups."}, "adult rats": {"tested_on": "adult rats", "assay": "Fibrogenesis after traumatic and thermal tissue damage in dermal wound healing in vivo", "set-up": "species or system rat", "conditions": "100 micromol ethanolic solution on wound margins, 8 weeks, compared with native FA", "from_the_text": "In order to determine the effects of nitrated fatty acids on fibrogenesis in response to traumatic and thermal tissue damage, an in vivo rat model was investigated. Paravertebral scalpel incision (two on each side) of approximately 1 cm in length and a depth of 1 mm were made in 12 anesthetized adult rats (150-200 g) of either sex after disinfection. Bleeding was stopped by manual compression. The entire length of the wound margins of one incision at each side were additionally cauterized using a 3-mm ball electrode connected to a DRE ASG-120 electrosurgical generator. Wound margins of one side were then covered with a sterile ethanolic 0.9% saline solution, or with a sterile ethanolic solution of the fatty acids (100 micromol), or with a sterile ethanolic solution of the nitrated fatty acids (100 micromol) using a sterile brush. A 1×10 mm cotton string that was bathed in the ethanolic solution containing 0.9% saline, native fatty acid or nitrated fatty acids was placed upon the incision site that had been closed by manual adaptation. The adaptation result and the cotton strings were fixed by an adhesive film. The animals were housed and fed according to institutional standards. The wound films were carefully removed after 2 weeks. Animals were euthanized after 8 weeks. The skin wounds were harvested, including the epidermis, dermis, and subcutaneous loose tissue with the surrounding normal tissue. The removed tissues were fixed in formalin and then embedded in paraffin. The cutting plane was vertical to the longitudinal axis of the former incisions. Slices (4-6 μm) were stained with H&E and Masson trichrome staining to evaluate the amount and density of collagen."}, "fibroblasts": {"tested_on": "fibroblasts", "assay": "Mechanical alteration of fibroblasts (cyclic stretching of coated polypropylene meshes)", "type": "cell-based", "conditions": "day 21 to end of follow-up", "from_the_text": "In order to simulate the effects of chronic shear forces on a healing wound, an in vitro model was established. A flat balloon was placed on the bottom of a Petri dish. A silicone sheet was placed above and sealed with the side of the Petri dish. Then a 3 mm agar layer was casted on top of the sheet. Commercially available polypropylene meshes for hernia repair (microporous mesh, a low-weight and macroporous mesh with absorbable polyglactin filaments, and a heavy-weight and microporous mesh) were placed on the agar plates and fixed at 4 points at the side of the Petri dish. This setting enabled stretching of the meshes by filling the balloons with air, which was performed at 10-second intervals using an automated pumping device. The model can be used to evaluate the effect of three-dimensional (3D) shear forces on cell growth during cell cultivation. Preincubated suspensions of fibroblasts (1.5×10(5) cells) in a culture medium (10% FCS) were added to the culture dishes and allowed to grow for 48 hours. Cyclic stretching was started at day 3. Histological analysis was performed from the central portions of the meshes at day 7, at day 21, and after 8 weeks. The scaffolds were detached from the culture plate and carefully rinsed. Then, they were cut into pieces, casted, and further processed for standard histology and immunohistology. Care was taken to achieve a cutting plane that was vertical to the surface plane of the meshes. Histological analysis evaluated the cellularity, the content of extra cellular matrix (ECM), and the magnitude of protein synthesis. Meshes were dip-coated with native and nitro fatty acids or left blank in the same manner as in example 1. The uncoated meshes served as controls."}}, "data": [{"compound": "C=CC1=C(C)C2=Cc3c(C=C)c(C)c4[n]3[Sn]([Cl])([Cl])[n]3c(c(C)c(CCC(=O)O)c3=CC3=NC(=C4)C(C)=C3CCC(=O)O)=CC1=N2", "note": "[HO-1 inhibitor, reference compound]", "values": [{"measurement": "HO-1 production", "setting": "[1]", "result": "reduced the HO-1 production to the lower detection limit or complete absence"}]}, {"compound": "Cc1c(C)c2c(c(C)c1O)CCC(C)(COc1ccc(CC3SC(=O)NC3=O)cc1)O2", "note": "(stereo not shown) [PPAR agonist, troglitazone, reference compound]", "values": [{"measurement": "reduction of collagen-1 concentrations as compared to the control", "setting": "human dermal fibroblasts; TGF-β2 stimulated, PPAR-positive cells, 25 μmol", "result": "35-40%"}]}, {"compound": "O=C(Nc1ccccc1)c1cc([N+](=O)[O-])ccc1Cl", "note": "[PPAR gamma antagonist, reference compound]", "values": [{"measurement": "collagen-1 after TGF-β2 stimulation", "setting": "human dermal fibroblasts; PPAR gamma-positive and -negative cells", "result": "marked increase of collagen-1"}]}, {"compound": "CCCCCC=CCC=C(C/C=C\\CCCCC(=O)O)[N+](=O)[O-]", "note": "[compound 20, 9-nitro-cis-6,9,12-octadecatrienoic acid]", "values": [{"measurement": "Relative differences: effect on adhesion, propagation and growth of endothelial cells", "setting": "[2]", "result": 0}, {"measurement": "Relative effect on serum protein adhesion and monocyte activation", "setting": "[3]", "result": "+"}, {"measurement": "Relative effect on profibrotic cytokines and collagen I on suture material", "setting": "[4]", "result": 0}, {"measurement": "Relative efficacy to suppress TGF-beta and ECM proteins in cardiomyocytes", "setting": "Cardiomyocytes", "result": "+"}, {"measurement": "Relative effect on collagen-1 production in response to TGF-β2", "setting": "human dermal fibroblasts; 10 and 50 μmol, TGF-β2 25 ng/ml, 48 hours, compared with native FA", "result": "+"}, {"measurement": "Relative effect on fibrogenesis (scar formation) in dermal wound healing", "setting": "adult rats", "result": "+"}]}, {"compound": "nitrooleic acid", "values": [{"measurement": "density of actinmyosin filaments in fibroblasts", "setting": "fibroblasts", "result": "more actin-myosin fibers (intra-cellular green filaments) than fibroblasts within the coated meshes"}]}]}
